For data set [1], the target named is T1, human FGFR1 (Homo sapiens, UniProt P11362).
T1 construct: purchased Invitrogen PV3146
Description: 33P isotope-labeled kinase activity test (Reaction Biology Corp), FGFR1. It counts as biochemical. As to conditions: 33P-ATP 5 μM, kinase 1.5 nM, 120 min room temperature. As to the method: (§1) The IC50 value was determined using ^33P isotope-labeled kinase activity test (Reaction Biology Corp) to evaluate the inhibitory ability of the compounds to be tested on human FGFR1, FGFR2 and VEGFR2.
(§2) Buffer conditions: 20 mM Hepes (pH 7.5), 10 mM MgCl2, 1 mM EGTA, 0.02% Brij35, 0.02 mg/mL BSA, 0.1 mM Na3VO4, 2 mM DTT, 1% DMSO.
(§3) Test steps: At room temperature, the compounds to be tested were dissolved in DMSO to prepare a 10 mM solution for use. The substrate was dissolved in the newly-prepared buffer, and the kinase to be tested was added thereto and mixed well. The DMSO solution in which the compounds to be tested were dissolved was added to the above-mentioned homogeneous reaction solution using acoustic technology (Echo 550). […] After incubating for 15 minutes, to the reaction solution was added ^33P-ATP (activity: 0.01 μCi/μL, with corresponding concentration listed in Table 10) to start the reaction. […] The kinase activity data was expressed by comparing the kinase activity of the groups containing the compounds to be tested with that of the blank group (containing only DMSO). The IC50 value was obtained by curve fitting using Prism4 software (GraphPad), and the experimental results were shown in Table 11.

A short description of data set [2]: Pharmacokinetic study in mice, cassette intravenous injection and intragastric administration. In kind it is in vivo. The following applies: mouse, plasma, Balb/c female mice; for Vd / AUC(0-t) / clearance / half-life: IV 0.2 mg/kg; for Vd: read-out: Apparent volume of distribution Vdss; for AUC(0-t): read-out: Area under the plasma concentration-time curve from time zero to 24 hours AUC0-24 h; for clearance: read-out: Clearance rate CL; for half-life: read-out: Half-life T1/2 (converted); for bioavailability: PO 1 mg/kg vs IV 0.2 mg/kg, read-out: Bioavailability F; for AUC / Cmax / Tmax: PO 1 mg/kg; for AUC: read-out: Area under the plasma concentration-time curve AUC; for Cmax: read-out: Peak concentration Cmax; for Tmax: read-out: Time to peak Tmax. Here is the method:
To evaluate the pharmacokinetic behavior of the compounds of the present disclosure after Cassette intravenous injection and intragastric administration, and to investigate the bioavailability thereof after intragastric administration.
Balb/c female mice aged 7 to 10 weeks were selected, and administered intravenously and orally with the doses of 0.2 mg/kg and 1 mg/kg, respectively. The mice were fasted for at least 12 hours before administration, and feeding was resumed after 4 hours of administration. The mice were free to drink water during the entire experiment. In this experiment, Cassette administration was used, and with regard to the intravenous injection group: an appropriate amount of each compound was weighed, and mixed with 5% DMSO/10% Solutol/85% Water for vortexing to prepare a 0.1 mg/mL of clear solution; the clear solution was filtered with a microporous membrane for later use; and with regard to the intragastric administration group: an appropriate amount of each compound was weighted, and mixed with 90% (25% HP-β-CD/10% Cremophor EL) with pH being adjusted to 4 to 5 to prepare a homogeneous suspension for later use. On the day of the experiment, the animals in the intravenous injection group were administrated with the corresponding compounds via tail vein single injection, with the administration volume of 2 mL/kg; and the animals in the oral group were administrated with the corresponding compounds by single intragastric administration, with the administration volume of 10 mL/kg. The body weight of the animals was weighed before administration, and the administration volume was calculated based on the body weight. The sample collection time was: 0.083 (injection group) h, 0.25 h, 0.5 h, 1 h, 2 h, 4 h, 8 h, and 24 h. Approximately 30 uL of whole blood was collected from the saphenous vein at each time point to prepare plasma for high performance liquid chromatography-tandem mass spectrometry (LC-MS/MS) to determine the concentration. All animals were euthanized by CO2 anesthesia after PK samples at the last time point were collected. The non-compartmental model of WinNonlin™ Version 6.3 (Pharsight, Mountain View, CA) pharmacokinetic software was used to process the plasma concentration, and the pharmacokinetic parameters were calculated using the linear logarithmic trapezoidal method.

Data set [3] deals with human gastric cancer SNU-16 cells expressing FGFR2. Description: Cell activity (proliferation) test of gastric cancer cell line SNU-16, CellTiter-Glo. It counts as cell-based. The following applies: inhibition of proliferation. As to the method: To test the inhibitory effect of the compounds on the proliferation of human gastric cancer SNU-16 cells expressing FGFR2.
The compounds used in the test were subjected to 3-fold concentration dilution, the concentration starting from 10 μM and subjected to […], resulting in 9 concentrations: 10 μM, 2.50 μM, 0.62 μM, 0.156 μM, 39.1 nM, 9.8 nM, 2.4 nM, 0.61 nM, and 0.15 nM.
(1) Promega CellTiter-Glo luminescent cell viability assay kit (Promega-G7573).
(2) 2104 EnVision multi-tag reader, PerkinElmer.
The inhibition rate of different doses of the compounds would be calculated in the Excel file, and the IC50 data was obtained by parametric curve fitting (GraphPad Software).
For orientation: Cellular ATP, detected with luciferase, serves as a proxy for viable cell number.

Data set [4] has as its system human gastric cancer SNU-16 subcutaneous xenograft tumor. Description: Anti-tumor activity in mouse subcutaneous xenograft tumor model of human gastric cancer SNU-16. In kind it is in vivo, nude mice. As to conditions: day 25, SNU-16 xenograft.
Description: To determine the anti-tumor effect of the compounds of the present disclosure in a mouse subcutaneous xenograft tumor model of human gastric cancer SNU-16
preparation of tumor tissues: SNU-16 cells were routinely cultured in an RPMI-1640 culture medium containing 10% fetal bovine serum under the conditions of 5% CO2, 37° C. and saturated humidity.
Each animal was inoculated with 200 μL (8×10^6 cells/mouse) to establish a SNU-16 xenograft model. The animal status was observed regularly, and the tumor diameter was measured with an electronic vernier caliper. The data was input into an Excel spreadsheet to calculate tumor volume and monitor tumor growth.
3) The tumor diameter was measured twice a week to calculate the tumor volume, and the animal body weight was weighted and recorded.
The calculation formula of tumor volume (TV) was: TV (mm^3)=1×w^2/2, where 1 represented the long diameter of the tumor (mm); w represented the short diameter of the tumor (mm).
The anti-tumor efficacy of the compounds was evaluated by TGI (%) or relative tumor proliferation rate T/C (%). […] The relative tumor volume (RTV) was calculated according to the results of the tumor measurement. The calculation formula was RTV=Vt/V0, where V0 was the tumor volume measured at the beginning of the grouping and administration (i.e., D0), and Vt was the tumor volume corresponding to a certain measurement in the mouse. […]
In data set [5] the target is T2, human FGFR2 (Homo sapiens, UniProt P21802).
T2 construct: purchased Invitrogen PV3368
T2 sequence (P21802 22-821): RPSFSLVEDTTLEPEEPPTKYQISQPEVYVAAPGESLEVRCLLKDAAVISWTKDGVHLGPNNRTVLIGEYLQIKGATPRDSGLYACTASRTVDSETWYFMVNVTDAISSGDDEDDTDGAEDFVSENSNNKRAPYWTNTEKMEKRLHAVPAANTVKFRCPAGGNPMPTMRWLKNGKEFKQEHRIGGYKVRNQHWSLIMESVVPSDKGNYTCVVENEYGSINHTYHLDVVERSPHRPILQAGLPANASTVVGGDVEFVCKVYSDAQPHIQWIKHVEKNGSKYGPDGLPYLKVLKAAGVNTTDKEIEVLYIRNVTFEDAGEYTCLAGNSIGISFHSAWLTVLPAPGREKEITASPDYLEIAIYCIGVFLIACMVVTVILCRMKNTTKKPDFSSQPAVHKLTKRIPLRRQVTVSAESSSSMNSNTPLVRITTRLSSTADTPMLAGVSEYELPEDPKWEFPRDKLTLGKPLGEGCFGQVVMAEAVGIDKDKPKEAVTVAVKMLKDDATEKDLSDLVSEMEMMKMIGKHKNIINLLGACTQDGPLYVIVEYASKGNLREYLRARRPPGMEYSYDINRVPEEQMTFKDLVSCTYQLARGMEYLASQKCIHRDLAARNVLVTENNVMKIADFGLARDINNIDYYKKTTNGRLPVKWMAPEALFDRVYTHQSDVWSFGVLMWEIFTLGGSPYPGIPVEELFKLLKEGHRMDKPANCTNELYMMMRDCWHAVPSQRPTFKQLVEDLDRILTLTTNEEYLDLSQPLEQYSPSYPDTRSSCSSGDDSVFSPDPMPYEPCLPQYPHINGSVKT
Description: 33P isotope-labeled kinase activity test (Reaction Biology Corp), FGFR2. As to conditions: 33P-ATP 5 μM, kinase 0.45 nM, 120 min room temperature. It counts as biochemical. Here is the method: as §1, §2, §3

The target in data set [6] is T3, hERG potassium ion channel (Homo sapiens, UniProt Q12809).
T3 construct: expressed in transfected cells; host or cells: CHO-hERG cells
T3 sequence (Q12809 whole entry): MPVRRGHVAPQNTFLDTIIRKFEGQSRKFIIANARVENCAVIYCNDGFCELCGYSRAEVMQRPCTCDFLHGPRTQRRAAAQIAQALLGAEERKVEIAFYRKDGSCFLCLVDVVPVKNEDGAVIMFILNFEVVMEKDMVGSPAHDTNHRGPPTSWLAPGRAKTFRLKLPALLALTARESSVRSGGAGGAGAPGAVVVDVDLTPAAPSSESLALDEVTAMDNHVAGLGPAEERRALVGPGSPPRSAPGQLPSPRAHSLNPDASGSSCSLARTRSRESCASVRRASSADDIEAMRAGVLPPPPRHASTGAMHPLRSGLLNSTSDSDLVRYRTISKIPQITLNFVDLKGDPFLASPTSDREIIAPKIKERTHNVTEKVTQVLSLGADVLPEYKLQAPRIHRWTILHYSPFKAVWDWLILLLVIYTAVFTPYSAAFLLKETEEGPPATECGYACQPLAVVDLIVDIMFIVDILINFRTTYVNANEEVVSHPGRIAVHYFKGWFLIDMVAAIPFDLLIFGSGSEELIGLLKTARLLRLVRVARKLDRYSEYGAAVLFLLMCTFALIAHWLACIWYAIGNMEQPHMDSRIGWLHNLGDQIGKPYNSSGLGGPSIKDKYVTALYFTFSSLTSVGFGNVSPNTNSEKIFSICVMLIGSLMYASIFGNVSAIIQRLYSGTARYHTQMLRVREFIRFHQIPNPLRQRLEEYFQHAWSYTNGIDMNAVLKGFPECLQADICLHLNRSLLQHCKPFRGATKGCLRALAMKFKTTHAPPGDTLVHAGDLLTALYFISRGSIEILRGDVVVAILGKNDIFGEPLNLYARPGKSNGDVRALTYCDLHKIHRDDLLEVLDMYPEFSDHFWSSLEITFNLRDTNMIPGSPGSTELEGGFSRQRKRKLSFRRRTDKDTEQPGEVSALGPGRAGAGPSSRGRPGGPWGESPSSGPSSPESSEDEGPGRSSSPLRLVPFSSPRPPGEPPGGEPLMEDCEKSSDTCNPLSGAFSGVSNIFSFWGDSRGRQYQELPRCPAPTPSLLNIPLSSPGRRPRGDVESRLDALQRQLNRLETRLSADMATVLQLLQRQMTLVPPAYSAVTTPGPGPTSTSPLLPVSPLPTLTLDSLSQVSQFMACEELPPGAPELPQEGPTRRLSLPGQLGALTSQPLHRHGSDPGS
Description: Inhibition test of hERG potassium ion channel, full-automatic patch clamp (Qpatch), CHO-hERG cells. The following applies: highest test concentration 40 μM. It counts as cell-based. Here is the method: To detect the effect of the compounds of the present disclosure to be tested on the hERG potassium ion channel using a full-automatic patch clamp method.
1.1 CHO-hERG cells were cultured in a 175 cm^2 culture bottle, and once the cells grow to a density of 60% to 80%, the culture solution was removed; and the cells were washed with 7 mL of PBS (Phosphate Buffered Saline), and then digested by adding 3 mL of Detachin.
1.2 After the digestion was complete, 7 mL of culture solution was added for neutralization, and the mixture was centrifuged; and the supernatant was pipetted out, and then 5 mL of culture solution was added for resuspension to ensure that the cells reached a density of 2 to 5×10^6/mL.
The single-cell high-impedance sealing and the whole-cell mode formation process were all automatically completed by the Qpatch instrument. After the whole-cell recording mode was obtained, the cells were clamped at −80 millivolt; before a 5 second +40 millivolt depolarization stimulus was given, a 50 millisecond −50 millivolt pre-voltage was given, then repolarized to −50 millivolt for 5 seconds, and then returned to −80 millivolt. Such a voltage stimulus was applied every 15 seconds and recorded for 2 minutes, and then extracellular fluid was given and recorded for 5 minutes, followed by drug administration. […]
The experimental data was analyzed by GraphPad Prism 5.0 software. […]
In general terms: hERG is a cardiac potassium channel; its block is linked to QT prolongation.

For data set [7], the target named is T4, human VEGFR2 (Homo sapiens, UniProt P35968).
T4 construct: purchased Invitrogen PR5992C
T4 sequence (P35968 20-1356): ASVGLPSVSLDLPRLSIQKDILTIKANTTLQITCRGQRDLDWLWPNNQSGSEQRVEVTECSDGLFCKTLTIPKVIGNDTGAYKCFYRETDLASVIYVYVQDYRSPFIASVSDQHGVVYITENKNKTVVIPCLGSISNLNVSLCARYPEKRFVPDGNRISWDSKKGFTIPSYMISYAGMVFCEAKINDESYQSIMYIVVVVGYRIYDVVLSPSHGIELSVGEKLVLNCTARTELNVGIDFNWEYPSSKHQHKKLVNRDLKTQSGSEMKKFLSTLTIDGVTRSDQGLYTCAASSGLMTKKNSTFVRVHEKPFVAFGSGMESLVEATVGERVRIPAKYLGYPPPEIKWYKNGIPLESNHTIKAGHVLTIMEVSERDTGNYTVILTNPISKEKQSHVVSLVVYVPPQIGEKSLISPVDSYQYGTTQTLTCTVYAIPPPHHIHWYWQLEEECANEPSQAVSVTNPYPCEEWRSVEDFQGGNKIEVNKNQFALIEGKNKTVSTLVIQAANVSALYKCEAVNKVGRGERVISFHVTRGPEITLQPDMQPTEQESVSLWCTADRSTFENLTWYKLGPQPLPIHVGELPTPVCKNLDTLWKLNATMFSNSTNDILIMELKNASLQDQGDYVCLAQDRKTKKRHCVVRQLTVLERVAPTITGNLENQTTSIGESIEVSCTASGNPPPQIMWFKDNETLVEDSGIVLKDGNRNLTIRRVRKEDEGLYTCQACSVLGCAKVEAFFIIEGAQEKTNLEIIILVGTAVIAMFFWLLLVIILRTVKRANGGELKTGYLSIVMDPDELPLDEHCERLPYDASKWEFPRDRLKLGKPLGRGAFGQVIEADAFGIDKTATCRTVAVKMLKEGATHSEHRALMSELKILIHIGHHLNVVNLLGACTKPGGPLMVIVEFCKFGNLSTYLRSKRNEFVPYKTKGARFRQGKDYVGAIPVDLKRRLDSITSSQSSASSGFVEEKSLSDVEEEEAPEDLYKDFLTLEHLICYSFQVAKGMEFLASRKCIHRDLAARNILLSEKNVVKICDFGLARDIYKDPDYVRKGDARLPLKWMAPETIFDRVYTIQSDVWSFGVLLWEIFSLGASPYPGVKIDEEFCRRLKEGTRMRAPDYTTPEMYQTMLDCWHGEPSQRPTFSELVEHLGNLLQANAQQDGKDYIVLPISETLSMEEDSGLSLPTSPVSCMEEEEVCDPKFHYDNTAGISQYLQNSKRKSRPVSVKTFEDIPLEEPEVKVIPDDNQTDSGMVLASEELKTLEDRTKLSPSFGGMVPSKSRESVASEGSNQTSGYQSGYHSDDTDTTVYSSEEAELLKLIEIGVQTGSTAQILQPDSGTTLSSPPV
Description: 33P isotope-labeled kinase activity test (Reaction Biology Corp), VEGFR2. It counts as biochemical. The following applies: 33P-ATP 20 μM, kinase 1 nM, 120 min room temperature. Here is the method: as §1, §2, §3

Results on ten compounds are retold here after US12325703B2, “Fused ring compound as FGFR and VEGFR dual inhibitor” (CGENETECH (SUZHOU, CHINA) CO., LTD., priority 2019, dated 2025).

As a reminder, the IC50 is the concentration that inhibits the measured activity by half. High values mean lower potency, low ones higher potency. One may read the clearance as a measure of how efficiently the substance is removed, as volume per time. As usually defined, the bioavailability is dose-corrected exposure relative to a reference, in per cent. Usually Tmax stands for the time at which the peak concentration occurs.

Counter-ions that a name gives are not always drawn. Some results are limits rather than exact numbers.

T1 sequence (P11362 22-822): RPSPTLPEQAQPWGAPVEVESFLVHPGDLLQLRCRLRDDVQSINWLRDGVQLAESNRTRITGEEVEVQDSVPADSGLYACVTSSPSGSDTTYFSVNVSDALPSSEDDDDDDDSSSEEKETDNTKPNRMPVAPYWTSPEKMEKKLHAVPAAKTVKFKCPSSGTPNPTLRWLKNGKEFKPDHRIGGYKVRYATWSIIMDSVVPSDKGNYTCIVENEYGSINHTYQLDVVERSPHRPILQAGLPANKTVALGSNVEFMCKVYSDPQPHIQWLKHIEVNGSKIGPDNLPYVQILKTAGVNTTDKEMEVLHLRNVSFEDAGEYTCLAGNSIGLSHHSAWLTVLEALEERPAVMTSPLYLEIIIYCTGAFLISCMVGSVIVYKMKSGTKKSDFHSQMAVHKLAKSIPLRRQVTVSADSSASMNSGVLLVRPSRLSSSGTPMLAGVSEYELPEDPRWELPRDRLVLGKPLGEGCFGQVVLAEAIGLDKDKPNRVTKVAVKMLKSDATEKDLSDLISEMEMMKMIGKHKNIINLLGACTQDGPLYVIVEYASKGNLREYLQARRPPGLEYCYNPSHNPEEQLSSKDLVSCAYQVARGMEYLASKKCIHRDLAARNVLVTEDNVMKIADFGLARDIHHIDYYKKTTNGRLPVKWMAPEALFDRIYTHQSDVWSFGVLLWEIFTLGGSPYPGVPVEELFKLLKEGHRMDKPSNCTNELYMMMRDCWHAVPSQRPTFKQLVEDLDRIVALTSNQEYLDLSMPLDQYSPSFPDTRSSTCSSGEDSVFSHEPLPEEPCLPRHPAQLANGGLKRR

For the compound `Cn1cc(-c2ccc3c(-c4cc(NS(=O)(=O)C5CC5)cc(-c5ccc(F)cc5F)c4)cnn3c2)cn1` [Compound 1], the IC50 in data set [1] was determined as 6.29 nM. Also, in data set [2], the Vd stood at 1.25 L/kg, the AUC(0-t) stood at 0.751 µM·h, the clearance amounted to 8.53 mL/min/kg and the half-life was 1.52 h. Also, in data set [2], the bioavailability was determined as 74%, the AUC came to 2.48 µM·h, the Cmax amounted to 540 nM and the Tmax was 2 h.

In turn, `CCS(=O)(=O)Nc1cc(-c2ccc(F)cc2F)cc(-c2cnn3cc(-c4cnn(C)c4)ccc23)c1` [Compound 2] registered an IC50 in data set [3] of 16.3 nM. Also, inhibition in data set [1] was half-maximal at 2.86 nM (IC50). Further, the “TGI (%) (tumor growth inhibition rate) on day 25” value in data set [4] (PO 10 mpk/QD) was 74%. In data set [2], the Vd was 1.2 L/kg, the AUC(0-t) was found to be 1.14 µM·h, the clearance was 6.53 mL/min/kg and the half-life was 2.12 h. In data set [2], the bioavailability is 43.8%, the AUC was determined as 1.98 µM·h, the Cmax is 388 nM and the Tmax was 2 h. The compound also gave an IC50 in data set [5] of 2.66 nM. Also, the IC50 in data set [6] is above 40000 nM.

As for `CC(=O)Nc1cc(-c2ccc(F)cc2F)cc(-c2cnn3cc(-c4cnn(C)c4)ccc23)c1` [Compound 3], the midpoint of inhibition in data set [1], the IC50, lay at 2.37 nM.

In the case of `Cn1cc(-c2ccc3c(-c4cc(NS(C)(=O)=O)cc(-c5ccc(F)cc5F)c4)cnn3c2)cn1` [Compound 4], in data set [3], the IC50 stood at 14.5 nM. The compound further showed an IC50 in data set [1] of 1.63 nM. Also, the “TGI (%) (tumor growth inhibition rate) on day 25” value in data set [4] (PO 20/30/20 mpk/QD (30 mg/kg/day from day 9, 20 mg/kg/day from day 12)) stood at 70%. In data set [2], the Vd was 1.4 L/kg, the AUC(0-t) worked out at 0.548 µM·h, the clearance turned out to be 12.6 mL/min/kg and the half-life is 1.17 h. In data set [2], the bioavailability amounted to 73.2%, the AUC is 1.9 µM·h, the Cmax was determined as 463 nM and the time of peak concentration (Tmax) is 2 h. Also, half-maximal inhibition in data set [5] (IC50) required 2.5 nM.

Regarding `Cn1cc(-c2cnc3c(-c4cc(NS(=O)(=O)C5CC5)cc(-c5ccc(F)cc5F)c4)cnn3c2)cn1` [Compound 5], the IC50 in data set [1] is 9.34 nM; in data set [6] it was above 40000 nM.

Take `CC(C)Nc1cc(-c2ccc(F)cc2F)cc(-c2cnn3cc(-c4cnn(C)c4)ccc23)c1` [Compound 6]: in data set [1], inhibition was half-maximal at 17 nM (IC50). That is a double-digit nanomolar value.

`Cn1cnc(-c2ccc3c(-c4cc(NS(C)(=O)=O)cc(-c5ccc(F)cc5F)c4)cnn3c2)n1` [Compound 7] showed an IC50 in data set [1] of 135 nM.

`Cn1cc(-c2ccc3c(-c4cc(NS(=O)(=O)C5CC5)nc(-c5ccc(F)cc5F)c4)cnn3c2)cn1` [Compound 14] showed an IC50 in data set [1] of 10.3 nM.

Take `Cn1cc(-c2ccc3c(-c4cc(NS(=O)(=O)C5CC5)cc(-c5ncc(F)cc5F)c4)cnn3c2)cn1` [Trifluoroacetate salt of compound 11]: the figures for the IC50 in data set [3], in data set [5] and in data set [7] were 10.5 nM, 0.76 nM and 0.6 nM, respectively.

As for `Cn1cc(-c2ccc3c(c2)ncn3-c2cc(NS(=O)(=O)C3CC3)cc(-c3ccc(F)cc3F)c2)cn1` [reference compound], the IC50 in data set [1] was 22.2 nM; in data set [5] it was 29.9 nM; in data set [7] it was 27.2 nM.
